Earlier results in article PMC3527451, “A Pilot Randomized, Placebo Controlled, Double Blind Phase I Trial of the Novel SIRT1 Activator SRT2104 in Elderly Volunteers” (PLoS ONE, 2012).

Test system: DIO mice and ob/ob mice
Conditions: e.g. DIO and Lep ob/ob obese mice; cited from earlier work

Oc1ccc(/C=C/c2cc(O)cc(O)c2)cc1 [resveratrol, reference compound]
cholesterol, LDL and triglycerides in preclinical models of dyslipidemia, diabetes and obesity: lower cholesterol, LDL and triglycerides
